In brackets after ≈: the same amount, converted by molar mass. Several values for one entry are separate records, joined by “and”; a condition that tells them apart may be missing. Identical values can stand only once. Like-named read-outs stand apart in the source and are kept apart here. Numbered stars: 1 amine (or outer) side, 2 acyl side, 3 side chain; on linkers, the order of the positions; unused ones are H or OH. Square brackets hold non-standard residues; d marks the D form. Peptide text beside a SMILES is read from it. ξ: configuration not given here. X4 = CN1CCN(c2cc(-c3cccc(C[C@@H](C(=O)[*:2])N(C)[*:1])c3)ccn2)CC1; X31 = CN([C@@H](Cc1cccc(-c2cccc(C(F)(F)F)c2)c1)C(=O)[*:2])[*:1]; X5 = CN([C@@H](Cc1cccc(-c2ccc3cnccc3c2)c1)C(=O)[*:2])[*:1]; X32 = CN([C@@H](Cc1cccc(-c2cccc(F)c2)c1)C(=O)[*:2])[*:1]; Hmp(2R,3S) = CC[C@H](C)[C@@H](O)C(=O)O; NMeVal(β-OH) = CN[C@H](C(=O)O)C(C)(C)O; X6 = CCC(C)[C@@H](O[*:1])C(=O)[*:2]; Ile(3ξ) = CCC(C)[C@H](N)C(=O)O; NMeV = CN[C@H](C(=O)O)C(C)C; ξL = CC(C)CC(N)C(=O)O
What was measured:
[1] = tested on: C. parapsilosis MMX 2323 ATCC 22019; experiment: MIC assay (CLSI microdilution); assay type: cell-based, Candida parapsilosis
Procedure: (§1) Aureobasidin and test compounds (i.e., AbA derivatives of the present invention) were received from Kalexsyn, Inc. (Kalamazoo, Mich.) as powder and were stored at 4° C. until the day of assay. […] amphotericin was obtained from Sigma Aldrich and stored under like conditions. […] Ethanol (95%) was used as a solvent and diluent for all AbA compounds. Amphotericin B was tested from 0.06-64 μg/mL. Amphotericin B (Sigma Aldrich; St. Louis, Mo.; Cat No. A9528-100MG, Lot No. 120M4087) was dissolved and diluted with dimethylsulfoxide (DMSO; Sigma Aldrich; St. Louis, Mo.; Cat No. 472301 Lot No. SHBD2072V).
(§2) The solvents were added to the test agents and the stock solutions stood for approximately 1 hr at room temperature prior to use to auto sterilize. Stock solutions were prepared at 40× the desired top concentration in the test plate.
(§3) All of the test isolates were originally received from either the American Type Culture Collection (ATCC), clinical labs, or directly from Aureogen Biosciences. Organisms stored by Micromyx were cultured on agar medium appropriate to each organism. Colonies were picked by swab from the isolation plates and put into suspension in appropriate broth containing cryoprotectant. The suspensions were aliquoted into cryogenic vials and maintained at −80° C.
(§4) Prior to testing, Candida isolates were streaked from the frozen vials on Sabouraud dextrose agar. The yeast isolates were incubated for 48 hours at 35° C. before use. The fungal isolates were obtained from enumerated fungal stocks previously prepared at Micromyx and stored in phosphate buffered saline at 4° C.
(§5) Test Media. The medium employed for the MIC assay was RPMI-1640 medium from HyClone Laboratories (Logan, Utah; Lot No. AYB60287A). The medium was prepared according to Clinical and Laboratory Standards Institute (CLSI) guidelines (1, 2), and modified to include 0.002% Tween-80. Candida parapsilosis ATCC 22019 (MMX 2323) and Aspergillus fumigatus ATCC MYA-3626 (MMX 5280) were also tested without Tween-80 to provide data for the quality control of amphotericin B in accordance with CLSI (3) and to assess the effect of Tween-80 on the activity of the test agents.
(§6) Test Procedure. The MIC assay method followed the procedure described by CLSI (1, 2) and employed automated liquid handlers to conduct serial dilutions and liquid transfers. Automated liquid handlers included the Multidrop 384 (Labsystems, Helsinki, Finland), Biomek 2000 and Biomek FX (Beckman Coulter, Fullerton Calif.). The wells in columns 2-12 in standard 96-well microdilution plates (Costar 3795) were filled with 150 μl of the appropriate diluent (95% EtOH for investigational compounds, 100% DMSO for amphotericin B). These assay plates would become the ‘mother plates’ from which the assay ‘daughter plates’ would be prepared. The drugs (300 μL at 40× the desired top concentration in the test plates) were dispensed into the appropriate well in Column 1 of the mother plates. The Biomek 2000 was used to make two-fold serial dilutions through Column 11 in the “mother plate”. The wells of Column 12 contained no drug and served as the organism growth control wells.
(§7) The daughter plates were loaded with 185 μL per well on the Multidrop 384 with RPMI plus 0.002% Tween-80 or RPMI containing no Tween-80 for the testing of the two QC isolates. The daughter plates were prepared on the Biomek FX instrument which transferred 5 μL of drug solution from each well of a mother plate to each corresponding well of each daughter plate in a single step.
(§8) A standardized inoculum of each organism was prepared per CLSI methods (1, 2). For the Candida isolates, colonies were picked from the streak plate and a suspension was prepared in RPMI to equal a 0.5 McFarland standard. This suspension was diluted 1:100 in RPMI resulting in a final concentration of approximately 0.5-2.5×10^3 CFU/mL. […]

[2] = tested on: C. neoformans MMX 0634 ATCC 90112; experiment: MIC assay (CLSI microdilution); assay type: cell-based; settings: Cryptococcus neoformans, ATCC90112, RPMI plus 0.002% Tween-80; read-out: MIC
Procedure: as §1, §2, §3, §4, §5, §6, §7, §8

[3] = tested on: C. albicans MMX 2000 ATCC 10231; experiment: MIC assay (CLSI microdilution); assay type: cell-based; settings: Candida albicans, ATCC10231, RPMI plus 0.002% Tween-80; read-out: MIC
Procedure: as §1, §2, §3, §4, §5, §6, §7, §8

A. flavus MMX 5948 = experiment: MIC/MEC assay (CLSI microdilution); assay type: cell-based
Procedure: as §1, §2, §3, §4, §5, §6, §7, §8

[4] = tested on: A. fumigatus MMX 6781 ATCC MYA-4609; experiment: MIC/MEC assay (CLSI microdilution); assay type: cell-based; settings: Aspergillus fumigatus; for MIC: 48 h, RPMI plus 0.002% Tween-80, read-out: MIC; for minimal effective concentration: RPMI plus 0.002% Tween-80, 48 hr
Procedure: as §1, §2, §3, §4, §5, §6, §7, §8

[5] = tested on: A. fumigatus MMX 6782 ATCC 13073; experiment: MIC/MEC assay (CLSI microdilution); assay type: cell-based; settings: Aspergillus fumigatus, ATCC13073, 48 h; for MIC: RPMI plus 0.002% Tween-80, read-out: MIC
Procedure: as §1, §2, §3, §4, §5, §6, §7, §8

[6] = tested on: A. niger MMX 0624 ATCC 16888; experiment: MIC/MEC assay (CLSI microdilution); assay type: cell-based; settings: Aspergillus niger, ATCC16888, 48 h
Procedure: as §1, §2, §3, §4, §5, §6, §7, §8

A. fumigatus MMX 5944 = experiment: MIC/MEC assay (CLSI microdilution); assay type: cell-based; settings: for minimal effective concentration / MIC: Aspergillus fumigatus, MMX5944, 48 h; for MIC: RPMI plus 0.002% Tween-80, read-out: MIC
Procedure: as §1, §2, §3, §4, §5, §6, §7, §8

[7] = tested on: A. fumigatus MMX 5280 ATCC MYA-3626; experiment: MIC/MEC assay (CLSI microdilution); assay type: cell-based, Aspergillus fumigatus
Procedure: as §1, §2, §3, §4, §5, §6, §7, §8

[8] = tested on: A. fumigatus from Aureogen; experiment: MIC/MEC assay (CLSI microdilution); assay type: cell-based
Procedure: as §1, §2, §3, §4, §5, §6, §7, §8

[9] = ATCC22019, RPMI plus 0.002% Tween-80, read-out: MIC
[10] = ATCC22019, Without Tween-80, read-out: MIC
[11] = Aspergillus flavus, MMX5948, 48 h, RPMI plus 0.002% Tween-80
[12] = Aspergillus flavus, MMX5948, 48 h, RPMI plus 0.002% Tween-80, read-out: MIC
[13] = RPMI plus 0.002% Tween-80, read-out: MEC
[14] = RPMI plus 0.002% Tween-80, read-out: MIC
[15] = Aspergillus fumigatus, 48 h, RPMI plus 0.002% Tween-80, read-out: MEC
[16] = Aspergillus fumigatus, 48 h, RPMI plus 0.002% Tween-80, read-out: MIC
[17] = Aspergillus fumigatus, 48 h, Without Tween-80, read-out: MEC
[18] = Aspergillus fumigatus, 48 h, Without Tween-80, read-out: MIC
[19] = read-out: MEC, RPMI plus 0.002% Tween-80
[20] = RPMI plus 0.002% Tween-80, 48 hr

Structure (SMILES) | MIC [1, 9] [µg/mL] | MIC [1, 10] [µg/mL] | MIC [2] [µg/mL] | MIC [3] [µg/mL] | minimal effective concentration (A. flavus MMX 5948; [11]) [µg/mL] | MIC (A. flavus MMX 5948; [12]) [µg/mL] | MIC [4] [µg/mL] | minimal effective concentration [4] [µg/mL] | minimal effective concentration [5, 13] [µg/mL] | MIC [5] [µg/mL] | minimal effective concentration [6, 13] [µg/mL] | MIC [6, 14] [µg/mL] | minimal effective concentration (A. fumigatus MMX 5944; RPMI plus 0.002% Tween-80) [µg/mL] | MIC (A. fumigatus MMX 5944) [µg/mL] | minimal effective concentration [7, 15] [µg/mL] | MIC [7, 16] [µg/mL] | minimal effective concentration [7, 17] [µg/mL] | MIC [7, 18] [µg/mL] | MIC ([7]; Without Tween-80, 48 hr) [µg/mL] | also measured
CC[C@H](C)[C@@H]1NC(=O)[C@@H]2CCCN2C(=O)[C@H](Cc2cccc(-c3cccc(F)c3)c2)N(C)C(=O)[C@H](Cc2ccccc2)NC(=O)[C@H](C(C)C)N(C)C(=O)[C@@H]([C@@H](C)CC)OC(=O)[C@H](C(C)(C)O)N(C)C(=O)[C@H](CC(C)C)NC(=O)[C@H](C(C)C)N(C)C1=O [Compound 7] (cyclo(F[X32]PI[NMeV]L[NMeVal(β-OH)][Hmp(2R,3S)][NMeV])) | 0.12 | 1 (≈ 0.836 µM) | 0.12 | 0.015 | > 64 | > 64 | > 64 | 1 | 0.5 | > 64 | 0.25 | 0.25 | 0.5 | > 64 | 2 | > 64 | 64 | > 64 |  | 
CC[C@H](C)[C@@H]1NC(=O)[C@@H]2CCCN2C(=O)[C@H](Cc2cccc(-c3cccc(C(F)(F)F)c3)c2)N(C)C(=O)[C@H](Cc2ccccc2)NC(=O)[C@H](C(C)C)N(C)C(=O)[C@@H]([C@@H](C)CC)OC(=O)[C@H](C(C)(C)O)N(C)C(=O)[C@H](CC(C)C)NC(=O)[C@H](C(C)C)N(C)C1=O [Compound 4] (cyclo(F[X31]PI[NMeV]L[NMeVal(β-OH)][Hmp(2R,3S)][NMeV])) | 0.5 | 2 (≈ 1.61 µM) | 0.25 | 0.12 | > 64 | > 64 | > 64 | > 64 | 1 | > 64 | 0.5 | 0.5 | 1 | > 64 | > 64 | > 64 | > 64 | > 64 |  | 
CCC(C)[C@@H]1NC(=O)[C@@H]2CCCN2C(=O)[C@H](Cc2cccc(-c3ccc4cnccc4c3)c2)N(C)C(=O)[C@H](Cc2ccccc2)NC(=O)[C@H](C(C)C)N(C)C(=O)[C@@H](C(C)CC)OC(=O)[C@H](C(C)(C)O)N(C)C(=O)C(CC(C)C)NC(=O)[C@H](C(C)C)N(C)C1=O (stereo partly drawn) [Compound 6] (cyclo(F[X5]P[Ile(3ξ)][NMeV][ξL][NMeVal(β-OH)][X6][NMeV])) |  |  |  |  |  |  |  |  |  |  |  |  |  |  |  |  |  |  | > 64 | MIC ([1]; ATCC22019, RPMI plus 0.002% Tween-80): 0.12 µg/mL; MIC ([1]; ATCC22019, Without Tween-80): 1 µg/mL (≈ 0.814 µM); MIC (A. flavus MMX 5948; [11]): 0.25 µg/mL; minimal effective concentration [5, 19]: 0.25 µg/mL; MIC ([6]; RPMI plus 0.002% Tween-80): 0.12 µg/mL; minimal effective concentration [6, 19]: 0.12 µg/mL; MEC (A. fumigatus MMX 5944; [20]): 0.5 µg/mL; minimal effective concentration ([7]; Aspergillus fumigatus, 48 h, read-out: MEC, RPMI plus 0.002% Tween-80): 1 µg/mL; minimal effective concentration ([7]; Aspergillus fumigatus, 48 h, read-out: MEC, Without Tween-80): 2 µg/mL
CC[C@H](C)[C@@H]1NC(=O)[C@@H]2CCCN2C(=O)[C@H](Cc2cccc(-c3ccnc(N4CCN(C)CC4)c3)c2)N(C)C(=O)[C@H](Cc2ccccc2)NC(=O)[C@H](C(C)C)N(C)C(=O)[C@@H]([C@@H](C)CC)OC(=O)[C@H](C(C)(C)O)N(C)C(=O)[C@H](CC(C)C)NC(=O)[C@H](C(C)C)N(C)C1=O [Compound 15] (cyclo(F[X4]PI[NMeV]L[NMeVal(β-OH)][Hmp(2R,3S)][NMeV])) | 0.03 | 0.5 (≈ 0.392 µM) | 0.06 |  |  | 0.25 | 0.25 | 0.12 |  | 0.5 |  | 0.03 | 0.06 | 0.5 | 0.12 | 0.25 |  | 1 (≈ 0.783 µM) | 2 (≈ 1.57 µM) | MIC ([1]; Without Tween-80): 0.5 µg/mL (≈ 0.392 µM); minimal effective concentration ([8]; Aspergillus fumigatus, 48 h, RPMI plus 0.002% Tween-80): 0.06 µg/mL; MIC [8, 16]: 0.25 µg/mL; MIC [8, 20]: 0.25 µg/mL; MIC (A. flavus MMX 5948; [20]): 0.25 µg/mL; MEC ([7]; Without Tween-80, 48 hr): 1/1 μg/mL and 1 μg/mL

Source: US11066447B2, “Aureobasidium derivatives and methods of synthesis” (AureoGen Biosciences, Inc., priority 2016, dated 2021)
